This passage reports EC50 results from patent publication US20240270821A1, “GIP/GLP1/GCG TRI-RECEPTOR AGONISTS AND USES THEREOF” (priority 2023, published 2024).

Common to all, as to format: cell-based
Test [1] has as its target T1, hGIPR (Homo sapiens, UniProt P48546).
T1 sequence (P48546 22-466): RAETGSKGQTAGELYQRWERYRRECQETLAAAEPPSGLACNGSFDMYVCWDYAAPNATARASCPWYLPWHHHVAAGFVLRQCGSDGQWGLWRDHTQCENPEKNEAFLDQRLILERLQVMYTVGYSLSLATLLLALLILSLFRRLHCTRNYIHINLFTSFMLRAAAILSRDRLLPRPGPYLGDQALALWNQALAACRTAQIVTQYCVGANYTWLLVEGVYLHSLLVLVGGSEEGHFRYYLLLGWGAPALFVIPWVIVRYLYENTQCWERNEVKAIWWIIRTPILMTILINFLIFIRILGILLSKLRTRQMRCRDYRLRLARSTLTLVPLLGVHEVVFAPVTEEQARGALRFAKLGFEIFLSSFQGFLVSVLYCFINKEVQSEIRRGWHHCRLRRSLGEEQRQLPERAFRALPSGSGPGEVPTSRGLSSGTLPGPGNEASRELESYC
Nature of the test: Functional cAMP activity in the presence of 1% HSA. The note with it: read-out: cAMP Rel EC50, hGIPR.

Test [2] deals with T2, hGLP-1R (Homo sapiens, UniProt P43220). Nature of the test: Functional cAMP activity in the presence of 1% HSA. As to conditions: read-out: cAMP Rel EC50, hGLP-1R.
The target in another test is human GcgR (Homo sapiens, UniProt P47871). Nature of the test: Functional cAMP activity in the presence of 1% HSA. The note with it: read-out: cAMP Rel EC50, hGcgR.
In test [3] the target is T1, hGIPR. Kind of test: Functional cAMP activation in the presence of 0.1% casein (no HSA). The note with it: read-out: Relative cAMP EC50, hGIPR.
Test [4] concerns the target T2, hGLP-1R. The description is as above. As to conditions: read-out: Relative cAMP EC50, hGLP-1R.
The target in a further test is hGcgR (Homo sapiens, UniProt P47871). The test is described as above. The note with it: read-out: Relative cAMP EC50, hGcgR.
[5] abbreviates: HEK-293 clonal cell line, 1% HSA, geometric mean of relative EC50.
[6] abbreviates: in the presence of 0.1% casein (no HSA), geometric mean of relative EC50.
[7] abbreviates: in the presence of 0.1% casein (no HSA), geometric mean.
Where [8] appears, read: 0.1% casein, no HSA, geometric mean.

Like-named read-outs stand apart in the source and are kept apart here. Starred links: 1 amine or outer side, 2 acyl side, 3 side chain; linkers in the order of their positions; H or OH if unused. Non-standard residues stand in square brackets, D forms with d. Residues, ends and D or L forms follow the SMILES beside them. Groups on a side chain read outwards from the residue. No end group written: not given here. *: point of attachment. C20 diacid = O=C(O)CCCCCCCCCCCCCCCCCCC(=O)*; C18 diacid = O=C(O)CCCCCCCCCCCCCCCCC(=O)*; αMePhe(2-F) = C[C@](N)(Cc1ccccc1F)C(=O)O; γGlu = O=C(O)[C@H](CCC(=O)[*:2])N[*:1]; αMe4Pal = C[C@](N)(Cc1ccncc1)C(=O)O; αMeY = C[C@](N)(Cc1ccc(O)cc1)C(=O)O; αMeF = C[C@](N)(Cc1ccccc1)C(=O)O; 4Pal = N[C@@H](Cc1ccncc1)C(=O)O; αMeL = CC(C)C[C@](C)(N)C(=O)O; αMeS = C[C@](N)(CO)C(=O)O; Iva = CC[C@](C)(N)C(=O)O; Orn = NCCC[C@H](N)C(=O)O; AEEA = NCCOCCOCC(=O)O; Aib = CC(C)(N)C(=O)O
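For Relative cAMP EC50, hGIPR in this document: intracellular cAMP rise after 30 min at 37 °C read by HTRF against a standard curve, scaled between buffer alone (0%) and top control ligand concentration (100%), four-parameter fit.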
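For Relative cAMP EC50, hGLP-1R in this document: intracellular cAMP rise after 30 min at 37 °C read by HTRF, normalized between buffer only (0%) and maximal control ligand (100%), four-parameter variable-slope fit.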
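For Relative cAMP EC50, hGcgR in this document: intracellular cAMP rise after 30 min at 37 °C, read by HTRF against a cAMP standard curve, scaled from buffer only (0%) to maximal control ligand response (100%).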

T2 sequence (P43220 24-463): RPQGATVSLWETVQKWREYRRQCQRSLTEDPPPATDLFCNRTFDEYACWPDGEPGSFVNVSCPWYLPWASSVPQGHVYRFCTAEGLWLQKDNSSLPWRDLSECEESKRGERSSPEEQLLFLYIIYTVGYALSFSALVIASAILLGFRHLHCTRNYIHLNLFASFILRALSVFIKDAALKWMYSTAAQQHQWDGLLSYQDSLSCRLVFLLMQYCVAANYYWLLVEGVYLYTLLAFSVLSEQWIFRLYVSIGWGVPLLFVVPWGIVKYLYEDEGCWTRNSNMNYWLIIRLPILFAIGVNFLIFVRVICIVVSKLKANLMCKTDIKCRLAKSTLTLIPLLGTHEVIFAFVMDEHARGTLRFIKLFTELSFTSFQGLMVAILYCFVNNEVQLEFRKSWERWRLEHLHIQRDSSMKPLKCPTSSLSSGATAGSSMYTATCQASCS
Chain of hGcgR (P47871 26-477): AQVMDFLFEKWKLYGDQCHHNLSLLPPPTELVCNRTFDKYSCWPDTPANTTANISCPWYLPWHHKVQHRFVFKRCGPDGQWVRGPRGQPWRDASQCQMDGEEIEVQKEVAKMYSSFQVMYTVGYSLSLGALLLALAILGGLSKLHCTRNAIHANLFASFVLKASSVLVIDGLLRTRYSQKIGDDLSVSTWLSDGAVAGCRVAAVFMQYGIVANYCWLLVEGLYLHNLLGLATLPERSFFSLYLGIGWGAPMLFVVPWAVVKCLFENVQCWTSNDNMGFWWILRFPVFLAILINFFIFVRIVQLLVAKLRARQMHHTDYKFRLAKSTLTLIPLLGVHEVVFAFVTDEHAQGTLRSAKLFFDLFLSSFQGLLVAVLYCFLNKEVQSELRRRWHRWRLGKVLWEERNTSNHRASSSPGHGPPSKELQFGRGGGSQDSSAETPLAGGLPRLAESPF
Chain of human GcgR (P47871 26-477): as above

For the compound `CC[C@H](C)[C@H](NC(=O)[C@H](Cc1ccccc1)NC(=O)[C@H](CCCN)NC(=O)C(C)(C)NC(=O)[C@H](CCC(N)=O)NC(=O)[C@H](C)NC(=O)[C@H](CCCCNC(=O)CC[C@H](NC(=O)CNC(=O)CCCCCCCCCCCCCCCCC(=O)O)C(=O)O)NC(=O)[C@H](CCCN)NC(=O)[C@H](CC(=O)O)NC(=O)[C@H](CC(C)C)NC(=O)[C@](C)(CC(C)C)NC(=O)[C@@H](NC(=O)[C@](C)(CO)NC(=O)[C@H](Cc1ccncc1)NC(=O)[C@H](CC(=O)O)NC(=O)[C@H](CO)NC(=O)[C@@H](NC(=O)[C@](C)(Cc1ccccc1F)NC(=O)[C@@H](NC(=O)CNC(=O)[C@H](CCC(N)=O)NC(=O)C(C)(C)NC(=O)[C@@H](N)Cc1ccc(O)cc1)[C@@H](C)O)[C@@H](C)O)[C@@H](C)CC)C(=O)N[C@H](CCC(=O)O)C(=O)N[C@@](C)(Cc1ccc(O)cc1)C(=O)N[C@@H](CC(C)C)C(=O)N[C@@H](CCC(N)=O)C(=O)N[C@@H](CCC(=O)O)C(=O)NCC(=O)NCC(=O)N1CCC[C@H]1C(=O)N[C@@H](CO)C(=O)N[C@@H](CO)C(=O)NCC(=O)N[C@@H](CCC(=O)O)C(=O)N1CCC[C@H]1C(=O)N1CCC[C@H]1C(=O)N1CCC[C@H]1C(=O)N[C@@H](CCC(=O)O)C(=O)NCC(=O)N[C@H](C(=O)N[C@@H](CCC(=O)O)C(=O)N[C@@H](CCC(=O)O)C(N)=O)[C@@H](C)O` [Example 658], the EC50 at hGIPR [1] (setting [5]) came out at 12 nM; on hGLP-1R [2] (setting [5]), 106 nM; at human GcgR (setting [5]), 376 nM; on hGIPR [3] (setting [6]), 0.0379 nM; on hGLP-1R [4] (setting [6]) it was 0.34 nM; on hGcgR (setting [6]), 1.05 nM.

Regarding “Y[Aib]QGTFTSD[4Pal][αMeS]Q[αMeL]LD[Orn]K([dE-γGlu-C18 diacid])AQ[Iva]QFIQ[αMeY]LLE[Aib]GPSSGAPPPSGGGE-NH2 [Example 1139]”, the EC50 at hGIPR [1] was determined as 2.87 nM; on hGLP-1R [2], 155 nM; at human GcgR, 269 nM; at hGIPR [3] (setting [7]), 0.0431 nM; at hGLP-1R [4] (setting [7]) it was 1.85 nM; on hGcgR (setting [7]), 5.29 nM.

Regarding “H-Y[Aib]QGTFTSD[4Pal]S[Orn][αMeL]LDKK([γGlu-γGlu-C18 diacid])AQ[αMe4Pal]AFIEYLIAGGPSSGEPPPSGTE-NH2 [Example 980]”, the EC50 was determined as 15.4 nM on hGIPR [1]; 290 nM on hGLP-1R [2]; 239 nM at human GcgR; 0.18 nM on hGIPR [3] (setting [7]); 2.26 nM on hGLP-1R [4] (setting [7]); 2.41 nM at hGcgR (setting [7]).

Turning to “H-Y[Aib]QGT[αMePhe(2-F)]TSD[4Pal][αMeS]I[αMeL]LD[Orn]K([AEEA-γGlu-C18 diacid])AQ[αMe4Pal]EFI[dE][αMeY]LIEGGPSSGAPPPGGE-NH2 [Example 1144]”, the EC50 at hGIPR [1] is 0.72 nM; on hGLP-1R [2], 36.5 nM; on human GcgR, 196 nM; on hGIPR [3] (setting [7]) it was 0.00649 nM; on hGLP-1R [4] (setting [7]), 0.282 nM; at hGcgR (setting [7]) it was 1.32 nM.

As to “H-Y[Aib]QGTFTSDFS[Orn][αMeL]LDKK([AEEA-γGlu-C20 diacid])AQ[Aib]AFIEYLLAGGTSSGEPPPSGE-NH2 [Example 106]”, the EC50 at hGIPR [1] was found to be 91 nM; at hGLP-1R [2], 977 nM; at human GcgR, 2000 nM; on hGIPR [3] (setting [7]) it was 0.345 nM; on hGLP-1R [4] (setting [7]) it was 3.94 nM; at hGcgR (setting [7]) it was 6.26 nM.

“H-Y[Aib]Q[dA]T[αMePhe(2-F)]TSD[4Pal]SI[αMeL]LD[Orn]K([AEEA-γGlu-C18 diacid])AQ[αMe4Pal]EFI[dE][αMeY]LIEGGPSSGAPPPSGS-NH2 [Example 1206]”: the EC50 at hGIPR [1] was 7.04 nM; at hGLP-1R [2], 44.1 nM; on human GcgR it was 251 nM; at hGIPR [3] (setting [8]), 0.0671 nM; on hGLP-1R [4] (setting [8]), 0.352 nM; on hGcgR (setting [8]), 1.78 nM.

On to “H-Y[Aib]QGTFTSD[4Pal]SQ[αMeL]LDKK([AEEA-γGlu-C18 diacid])AQ[αMe4Pal]AFIEYLIE[Aib]GPSSGAPPPSSS-NH2 [Example 848]”, for which the EC50 is 20.2 nM on hGIPR [1]; 313 nM on hGLP-1R [2]; 615 nM at human GcgR; 0.148 nM on hGIPR [3] (setting [7]); 2.29 nM at hGLP-1R [4] (setting [7]); 3.22 nM on hGcgR (setting [7]).

Regarding “H-Y[Aib]QGTFTSDFSK[αMeL]LDKK([AEEA-γGlu-C20 diacid])AQ[Aib]AFIEWLIEGGPSSGAPPPSEG-NH2 [Example 40]”, the EC50 on hGIPR [1] was found to be 76.7 nM; at hGLP-1R [2] it was 138 nM; on human GcgR it was 2750 nM; at hGIPR [3] (setting [7]), 0.139 nM; on hGLP-1R [4] (setting [7]) it was 0.693 nM; on hGcgR (setting [7]), 12.3 nM.

Regarding `CC[C@H](C)[C@H](NC(=O)[C@H](Cc1ccccc1)NC(=O)[C@H](C)NC(=O)C(C)(C)NC(=O)[C@H](CCC(N)=O)NC(=O)[C@H](C)NC(=O)[C@H](CCCCNC(=O)COCCOCCNC(=O)COCCOCCNC(=O)CC[C@H](NC(=O)CCCCCCCCCCCCCCCCC(=O)O)C(=O)O)NC(=O)[C@H](CCCCN)NC(=O)[C@H](CC(=O)O)NC(=O)[C@H](CC(C)C)NC(=O)[C@H](CC(C)C)NC(=O)[C@@H](NC(=O)[C@H](CO)NC(=O)[C@H](Cc1ccncc1)NC(=O)[C@H](CC(=O)O)NC(=O)[C@H](CO)NC(=O)[C@@H](NC(=O)[C@](C)(Cc1ccccc1)NC(=O)[C@@H](NC(=O)CNC(=O)[C@H](CCC(N)=O)NC(=O)C(C)(C)NC(=O)[C@@H](N)Cc1ccc(O)cc1)[C@@H](C)O)[C@@H](C)O)[C@@H](C)CC)C(=O)N[C@@H](CCC(=O)O)C(=O)N[C@@H](Cc1ccc(O)cc1)C(=O)N[C@@H](CC(C)C)C(=O)N[C@@H](CC(C)C)C(=O)N[C@@H](CCC(=O)O)C(=O)NCC(=O)NCC(=O)N1CCC[C@H]1C(=O)N[C@@H](CO)C(=O)N[C@@H](CO)C(=O)NCC(=O)N[C@@H](C)C(=O)N1CCC[C@H]1C(=O)N1CCC[C@H]1C(=O)N1CCC[C@H]1C(=O)N[C@@H](CO)C(N)=O` [Example 418] (H-Y[Aib]QGT[αMeF]TSD[4Pal]SILLDKK([AEEA-AEEA-γGlu-C18 diacid])AQ[Aib]AFIEYLLEGGPSSGAPPPS-NH2; N-terminus assumed), the EC50 on hGIPR [1] was found to be 6.02 nM; at hGLP-1R [2], 36.6 nM; at human GcgR it was 627 nM; at hGIPR [3], 0.0153 nM; at hGLP-1R [4], 0.264 nM; on hGcgR, 4.7 nM.

“H-Y[Aib]QGT[αMePhe(2-F)]TSD[4Pal]SILLD[Orn]K([γGlu-γGlu-C18 diacid])AQ[Aib][Orn]FIEYLQEGGPSSGAPPPSGTEE-NH2 [Example 582]”: the EC50 on hGIPR [1] was 10.8 nM; at hGLP-1R [2], 35.5 nM; at human GcgR it was 1060 nM; on hGIPR [3], 0.103 nM; at hGLP-1R [4] it was 0.298 nM; at hGcgR, 10.5 nM.

For “H-Y[Aib]QGTFTSD[4Pal]S[Orn][αMeL]LD[Orn]K([γGlu-γGlu-C18 diacid])AQ[αMe4Pal]AFIE[αMe4Pal]LIE[Aib]GPSSGEPPPSGS-NH2 [Example 991]”, the EC50 on hGIPR [1] came to 14.8 nM; on hGLP-1R [2], 315 nM; at human GcgR, 405 nM; on hGIPR [3] (setting [7]), 0.119 nM; at hGLP-1R [4] (setting [7]), 3.91 nM; on hGcgR (setting [7]), 3.03 nM.

For the compound “H-Y[Aib]QGTFTSDFS[Orn][αMeL]LDKK([AEEA-γGlu-C18 diacid])AQ[Aib]AFIEWLLEGGPSSGAPPPEGE-NH2 [Example 120]”, the EC50 turned out to be 33.4 nM at hGIPR [1]; 664 nM at hGLP-1R [2]; 1540 nM at human GcgR; 0.44 nM on hGIPR [3] (setting [7]); 4.77 nM on hGLP-1R [4] (setting [7]); 5.85 nM on hGcgR (setting [7]).

In general, EC50 refers to the concentration that produces a half-maximal response.
